# Measurements reported in patent US9980943B2, “Methods of treating muscular dystrophy” (BOARD OF REGENTS OF THE NEVADA SYSTEM OF HIGHER EDUCATION, …, priority 2013, dated 2018).
# Assays:
# Format in all cases: cell-based, mouse
# [1] = test system: α7 integrin (LacZ reporter in α7βgal+/− myoblasts); test: Myoblast α7+/LacZ integrin FDG assay (Burkin assay in myoblasts, 96-well); details: α7+/LacZ myoblasts, 96-well
# [2] = test system: α7 integrin (LacZ reporter in α7+/LacZ myotubes); test: Myotube α7 integrin FDG assay (Burkin assay in myotubes, 96-well); details: myotubes
# [3] = test system: β-galactosidase in CMV-LacZ C2C12 myoblasts; test: CMV-LacZ secondary screen in C2C12 myoblasts (β-Gal stabilizing assay); details: CMV-LacZ C2C12 myoblasts
# Summary of the method: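 CMV-LacZ C2C12 line (clonal, FDG-screened); myoblasts/myotubes dosed 0.5–40 μM (0.5, 1, 5, 10, 20, 40 μM); n=2 per point; β-gal stabilization read-out.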
# [4] = test system: β-galactosidase in CMV-LacZ C2C12 myotubes; test: CMV-LacZ secondary screen in C2C12 myotubes (β-Gal stabilizing assay); details: C2C12 CMV-LacZ myotubes, fold relative to DMSO
# Summary of the method: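 First, C2C12 myoblasts were transfected with a linearized CMV-LACZ vector and clonal lines selected by FDG β-gal assay. Then cells were exposed to compounds at 0.5, 1, 5, 10, 20 and 40 μM in 96-well format, two replicates each, and β-gal measured.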
SMILES,"Burkin Assay in Myoblasts, signal relative to DMSO ([1]; 0.5 uM)","Burkin Assay in Myoblasts, signal relative to DMSO ([1]; 1 uM)","Burkin Assay in Myoblasts, signal relative to DMSO ([1]; 5 uM)","Burkin Assay in Myoblasts, signal relative to DMSO ([1]; 10 uM)","Burkin Assay in Myoblasts, signal relative to DMSO ([1]; 20 uM)","Burkin Assay in Myoblasts, signal relative to DMSO ([1]; 40 uM)","Burkin Assay in Myotubes, α7 integrin LacZ reporter signal relative to DMSO ([2]; 0.5 uM)","Burkin Assay in Myotubes, α7 integrin LacZ reporter signal relative to DMSO ([2]; 1 uM)","Burkin Assay in Myotubes, α7 integrin LacZ reporter signal relative to DMSO ([2]; 5 uM)","Burkin Assay in Myotubes, α7 integrin LacZ reporter signal relative to DMSO ([2]; 10 uM)","Burkin Assay in Myotubes, α7 integrin LacZ reporter signal relative to DMSO ([2]; 20 uM)","Burkin Assay in Myotubes, α7 integrin LacZ reporter signal relative to DMSO ([2]; 40 uM)",CMV-LACZ in Myoblasts (β-galactosidase activity relative to DMSO) ([3]; 0.5 uM),CMV-LACZ in Myoblasts (β-galactosidase activity relative to DMSO) ([3]; 1 uM),CMV-LACZ in Myoblasts (β-galactosidase activity relative to DMSO) ([3]; 5 uM),CMV-LACZ in Myoblasts (β-galactosidase activity relative to DMSO) ([3]; 10 uM),CMV-LACZ in Myoblasts (β-galactosidase activity relative to DMSO) ([3]; 20 uM),CMV-LACZ in Myoblasts (β-galactosidase activity relative to DMSO) ([3]; 40 uM),"CMV-LACZ in Myotubes, signal relative to DMSO ([4]; 0.5 uM)","CMV-LACZ in Myotubes, signal relative to DMSO ([4]; 1 uM)",further results
CCC(CC)C(=O)Nc1c(C(=O)N2CCN(c3ccccc3)CC2)oc2ccccc12 [MLS001116079-01],1.03,1.087,1.025,0.9749,1.244,1.34,0.9524,0.9502,0.9559,0.9012,0.9027,0.9686,1.0950,1.0492,0.9306,1.0228,1.0448,0.9078,1.3543,0.8152,"CMV-LACZ in Myotubes, signal relative to DMSO ([4]; 5 uM): 1.0227; CMV-LACZ in Myotubes, signal relative to DMSO ([4]; 10 uM): 1.1374; CMV-LACZ in Myotubes, signal relative to DMSO ([4]; 20 uM): 0.9063; CMV-LACZ in Myotubes, signal relative to DMSO ([4]; 40 uM): 1.0811"
CCc1nc2ccccc2c(C(=O)NCc2ccccc2)c1C [MLS000688267-01],1.092,1.104,1.358,0.9133,1.0466,1.107,0.9011,0.8373,1.132,1.101,0.8808,1.131,1.0950,1.1579,0.9129,0.8935,1.1407,1.0774,0.8648,1.1333,"CMV-LACZ in Myotubes, signal relative to DMSO ([4]; 5 uM): 0.9634; CMV-LACZ in Myotubes, signal relative to DMSO ([4]; 10 uM): 1.2248; CMV-LACZ in Myotubes, signal relative to DMSO ([4]; 20 uM): 0.9505; CMV-LACZ in Myotubes, signal relative to DMSO ([4]; 40 uM): 1.1505"
CC(C)c1ccc(OC(=O)c2cccc(S(=O)(=O)N3CCN(C)CC3)c2)cc1 [MLS001130011-01],0.9715,0.8947,1.374,0.9762,1.037,0.9155,0.9553,0.9952,0.8834,1.0699,0.7883,0.7512,1.1702,0.7695,1.0011,1.1138,0.7837,0.8311,0.9358,1.0211,"CMV-LACZ in Myotubes, signal relative to DMSO ([4]; 5 uM): 0.9057; CMV-LACZ in Myotubes, signal relative to DMSO ([4]; 10 uM): 0.8998; CMV-LACZ in Myotubes, signal relative to DMSO ([4]; 20 uM): 0.8367; CMV-LACZ in Myotubes, signal relative to DMSO ([4]; 40 uM): 1.0156"
